Experimental findings from US9302999B2, “Substituted triazoles as herbicides” (E. I. DU PONT DE NEMOURS AND COMPANY, priority 2012, dated 2016) are described below.

Test [1] has as its system Waterhemp. In words: Test C preemergence: waterhemp. The class given is in vivo, Amaranthus rudis. Particulars: scale 0 to 100, 0 no effect, 100 complete control.
Test [2] has as its system velvetleaf (Abutilon theophrasti). In words: Test F pre-/postemergence: velvetleaf. It is filed as in vivo. Particulars: Preemergence. The procedure, abridged:
(§1)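 0–100 visual control scores, taken 14–21 d after application in the greenhouse. Preemergence treatment was made to silt loam soil at sowing. Postemergence sprays hit 1- to 4-leaf plants (2–18 cm) in peat/vermiculite mix. Surfactant-containing non-phytotoxic solvent served as the vehicle.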

Test [3] relates to Waterhemp. The experiment in a line: Test C postemergence: waterhemp. The class given is in vivo. The procedure, abridged: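 Plants at the 1- to 4-leaf stage (2 to 18 cm tall), grown in pots of peat moss/vermiculite planting medium, received postemergence applications of the formulated test chemicals. After 13 to 15 days in a greenhouse, injury was scored visually versus controls from 0 (no effect) to 100 (complete control).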

Test [4] relates to morningglory (Ipomoea coccinea). The experiment in a line: Test F pre-/postemergence: morningglory. The class given is in vivo. Particulars: Preemergence. From the text:
(§2) Seeds of plant species selected from corn (Zea mays), soybean (Glycine max), velvetleaf (Abutilon theophrasti), lambsquarters (Chenopodium album), poinsettia, wild (wild poinsettia, Euphorbia heterophylla), pigweed, palmer (palmer pigweed, Amaranthus palmeri), waterhemp (common waterhemp, Amaranthus rudis), surinam grass (Brachiaria decumbens), crabgrass, Brazil (Brazilian crabgrass, Digitaria horizontalis), panicum, fall (fall panicum Panicum dichotomiflorum), crabgrass, large (large crabgrass, Digitaria sanguinalis), foxtail, giant (giant foxtail, Setaria faberii), foxtail, green (green foxtail Setaria viridis), goosegrass (Eleusine indica), ragweed (common ragweed, Ambrosia elatior), barnyardgrass (Echinochloa crus-galli), sandbur (southern sandbur, Cenchrus echinatus), arrowleaf sida (Sida rhombifolia), ryegrass, Italian (Italian ryegrass, Lolium multiflorum), dayflower, VA (Virginia (VA) dayflower, Commelina virginica), field bindweed (Convolvulus arvensis), cocklebur (common cocklebur, Xanthium strumarium), morningglory (Ipomoea coccinea), nightshade (eastern black nightshade, Solanum ptycanthum), kochia (Kochia scoparia), nutsedge, yellow (yellow nutsedge, Cyperus esculentus), johnsongrass (Sorghum halepense), smartweed (ladysthumb smartweed, Polygonum persicaria), and beggarticks (hairy beggarticks, Bidens pilosa), were planted into a silt loam soil and treated preemergence with test chemicals formulated in a non-phytotoxic solvent mixture which included a surfactant. At the same time, plants selected from these crop and weed species and also pigweed (Amaranthus retroflexus), waterhemp_RES1 (ALS/Triazine resistant common waterhemp, Amaranthus rudis) and waterhemp_RES2 (ALS/HPPD resistant common waterhemp, Amaranthus rudis) were planted in pots containing a planting medium comprising spaghnum peat moss, vermiculite, wetting agent and starter nutrients treated with postemergence applications of some of the test chemicals formulated in the same manner. Plants ranged in height from 2 to 18 cm for postemergence treatments (1- to 4-leaf stage).
(§3) Treated plants and controls were maintained in a greenhouse for 14 to 21 days, after which time all species were compared to controls and visually evaluated. Plant response ratings, summarized in Table E, are based on a scale of 0 to 100 where 0 is no effect and 100 is complete control. A dash (-) response means no test result.

In test [5] the test system is ryegrass, Italian (Italian ryegrass, Lolium multiflorum). In words: Test F pre-/postemergence: ryegrass, Italian. The class given is in vivo.
Text: as §2, §3

Another test deals with corn (Zea mays). In words: Test F pre-/postemergence: corn. It is filed as in vivo. The procedure, abridged: as §1
Setting [6] is: 4 g ai/ha, scale 0 to 100, 0 no effect, 100 complete control.
Where [7] appears, read: 8 g ai/ha, scale 0 to 100, 0 no effect, 100 complete control.
Where [8] appears, read: 16 g ai/ha, scale 0 to 100 (0 no effect, 100 complete control).
Where [9] appears, read: 31 g ai/ha, scale 0 to 100 (0 no effect, 100 complete control).
The mark [10] stands for this setting: 62 g ai/ha, scale 0 to 100 (0 no effect, 100 complete control).
Where [11] appears, read: Postemergence, 4 g ai/ha, scale 0 to 100.
Setting [12] is: Postemergence, 8 g ai/ha, scale 0 to 100.
Where [13] appears, read: Postemergence, 16 g ai/ha, scale 0 to 100.
The mark [14] stands for this setting: Postemergence, 31 g ai/ha, scale 0 to 100.
The mark [15] stands for this setting: Postemergence, 62 g ai/ha, scale 0 to 100.
Where [16] appears, read: Preemergence, 4 g ai/ha, scale 0 to 100, 0 no effect, 100 complete control.
Setting [17] is: Preemergence, 8 g ai/ha, scale 0 to 100, 0 no effect, 100 complete control.
Setting [18] is: Preemergence, 16 g ai/ha, scale 0 to 100 (0 no effect, 100 complete control).
[19] abbreviates: Preemergence, 31 g ai/ha, scale 0 to 100 (0 no effect, 100 complete control).
The mark [20] stands for this setting: Preemergence, 62 g ai/ha, scale 0 to 100.
Setting [21] is: Preemergence, 125 g ai/ha, scale 0 to 100.
The mark [22] stands for this setting: Preemergence, 250 g ai/ha, scale 0 to 100.

Take `Cc1nn(-c2ccc(C(F)(F)F)c(F)c2)nc1Cc1ccnc(C(F)(F)F)c1` [Compound 162]: the “Plant response rating, Waterhemp” value in the test on Waterhemp [1] (125 g ai/ha) turned out to be 100; in the test with Waterhemp [3] (setting [9]), 98; with Waterhemp [3] (setting [10]), 100; with Waterhemp [3] (250 g ai/ha, scale 0 to 100), 100. Also, the “Plant response rating, Velvetleaf” value in test [2] (setting [6]), in test [2] (setting [7]), in test [2] (setting [8]) and in test [2] (setting [9]) was 0 throughout. Moreover, the “Plant response rating, Morningglory” value is on record as 0 in test [4] (setting [6]), 0 in test [4] (setting [7]), 20 in test [4] (setting [8]) and 30 in test [4] (setting [9]). Further, the “Plant response rating, Ryegrass, Italian” value in test [5] (setting [11]), in test [5] (setting [12]), in test [5] (setting [13]), in test [5] (setting [14]), in test [5] (setting [15]) and in test [5] (setting [16]) was 0 each time. In addition, the “Plant response rating, Ryegrass, Italian” value in test [5] (setting [17]) was 0; in test [5] (setting [18]) it was 35; in test [5] (setting [19]), 80. Moreover, the “Plant response rating, Corn” value worked out at 5 in the test with corn (Zea mays) (setting [11]); 5 in the test on corn (Zea mays) (setting [12]); 10 with corn (Zea mays) (setting [13]); 10 in the test with corn (Zea mays) (setting [14]); 10 in the test with corn (Zea mays) (setting [15]); 0 in the test on corn (Zea mays) (setting [16]). Moreover, the “Plant response rating, Corn” value with corn (Zea mays) (setting [17]), in the test on corn (Zea mays) (setting [18]), in the test with corn (Zea mays) (setting [19]) and with corn (Zea mays) (setting [20]) was 0 throughout.

Consider `CCc1nn(-c2ccc(F)cc2)nc1Oc1ccnc(C(F)(F)F)c1` [Compound 166], for which the “Plant response rating, Waterhemp” value in the test with Waterhemp [1] (125 g ai/ha) came out at 100; in the test on Waterhemp [1] (250 g ai/ha), 100; in the test with Waterhemp [3] (250 g ai/ha, scale 0 to 100), 98.

In the case of `CCCc1nn(-c2ccc(F)cc2)nc1Cc1ccnc(C(F)(F)F)c1` [Compound 153], the “Plant response rating, Waterhemp” value in the test with Waterhemp [1] (125 g ai/ha) amounted to 100; in the test on Waterhemp [3] (setting [9]), 98; in the test with Waterhemp [3] (setting [10]), 98; in the test with Waterhemp [3] (250 g ai/ha, scale 0 to 100), 98. Besides, the “Plant response rating, Velvetleaf” value in test [2] (setting [8]) was 20; in test [2] (setting [9]) it was 50; in test [2] (125 g ai/ha, scale 0 to 100), 98; in test [2] (250 g ai/ha, scale 0 to 100), 100. Further, the “Plant response rating, Morningglory” value in test [4] (setting [8]) is given as 0; in test [4] (setting [9]), 30; in test [4] (125 g ai/ha, scale 0 to 100), 65; in test [4] (250 g ai/ha, scale 0 to 100), 65. The “Plant response rating, Ryegrass, Italian” value in test [5] (setting [18]) came out at 5; in test [5] (setting [19]) it was 5; in test [5] (setting [21]), 65; in test [5] (setting [22]) it was 95. The “Plant response rating, Corn” value is recorded as 0 in the test with corn (Zea mays) (setting [18]); 0 with corn (Zea mays) (setting [19]); 0 with corn (Zea mays) (setting [20]); 0 in the test on corn (Zea mays) (setting [21]); 10 in the test on corn (Zea mays) (setting [22]).
